# Experimental data from patent US11007183B2, “Cancer treatments using combinations of PI3K/Akt pathway and ERK inhibitors” (BIOMED VALLEY DISCOVERIES, INC., priority 2013, dated 2021).
# Columns and labels:
# [1] = system: HCT116 human colorectal carcinoma xenograft; assay: HCT116 xenograft tumor growth delay (TGD) study; type: in vivo, mice
# Description: Female athymic nude mice (Crl:NU(Ncr)-Foxn1^nu, Charles River) were eight weeks old with a body weight (BW) range of 14.6 to 25.7 grams on Day 1 of the study. The animals were fed ad libitum water (reverse osmosis, 1 ppm Cl), and NIH 31 Modified and Irradiated Lab Diet® consisting of 18.0% crude protein, 5.0% crude fat, and 5.0% crude fiber. The mice were housed on irradiated Enrich-O'Cobs™ Laboratory Animal Bedding in static microisolators on a 12-hour light cycle at 20-22° C. (68-72° F.) and 40-60% humidity.
# HCT116 human colon carcinoma cells were cultured in RPMI-1640 medium supplemented with 10% fetal bovine serum, 2 mM glutamine, 100 units/mL penicillin G sodium, 100 μg/mL streptomycin sulfate, and 25 μg/mL gentamicin. The tumor cells were grown in tissue culture flasks in a humidified incubator at 37° C., in an atmosphere of 5% CO2 and 95% air.
# The HCT116 cells used for implantation were harvested during exponential growth and resuspended in 50% Matrigel (BD Biosciences): 50% phosphate buffered saline at a concentration of 2.5×10^7 cells/mL. On the day of tumor implant, each test mouse was injected subcutaneously in the right flank with 5×10^6 cells (0.2 mL cell suspension), and tumor growth was monitored as the average size approached the target range of 100 to 150 mm^3. Tumors were measured in two dimensions using calipers, and volume was calculated using the formula: Tumor Volume (mm^3)=(w^2×l)/2 where w=width and l=length, in mm, of the tumor. Tumor weight may be estimated with the assumption that 1 mg is equivalent to 1 mm^3 of tumor volume.
# Ten days after tumor implantation, designated as Day 1 of the study, the animals were sorted into nine groups (Groups 1-9) each consisting of fifteen mice and one group (Group 10) consisting of ten mice.
# BVD-523 doses were prepared by suspending the required amount of BVD-523 powder in 1% carboxymethyl cellulose (CMC) in deionized water (“Vehicle”). A 10 mg/mL BVD-523 stock was prepared, and was used to dose the 100 mg/kg BVD-523 group. Aliquots of the stock were diluted with the vehicle to a concentration of 5.0 mg/mL, which provided a 50 mg/kg BVD-523 dosage in a dosing volume of 10 mL/kg. The BVD-523 doses were stored at 4° C. for up to one week. The 1% CMC vehicle was used to dose the control group.
# Paclitaxel (Lot CP2N10007) was purchased as a dry powder from Phyton Biotech, LLC (Fort Worth, Tex.). A paclitaxel stock solution (30 mg/mL) in 50% ethanol: 50% Cremophor EL was prepared and stored at room temperature protected from light during the dosing period. On each day of dosing, an aliquot of the paclitaxel stock was diluted with 5% dextrose in water (D5W) to yield a 3.0 mg/mL paclitaxel dosing solution in a vehicle consisting of 5% ethanol: 5% Cremophor EL: 90% D5W.
# On Day 1 of the study, mice were sorted into nine groups (Group 1-9) each consisting of fifteen mice and one group (Group 10) consisting of ten mice, and dosing was initiated according to the treatment plan summarized in Table 4 below. All doses were given by oral gavage (p.o.) except paclitaxel, which was given i.v. For each agent, the dosing volume of 10 mL/kg (0.2 mL per 20 grams of BW) was scaled to the BW of the individual animal. […] For bid dosing, dosing was initiated in the afternoon of Day 1, so that one dose was given on the first day (“first day 1 dose”).
# Group 1 received 1% CMC vehicle p.o. bid to end, and served as the control group for calculation of % TGD. Group 10 received paclitaxel i.v. at 30 mg/kg once every other day (qod) for five doses (qod×5), and served as the positive control for the model.
# Groups 4 and 5 received 50 and 100 mg/kg BVD-523, respectively, p.o. bid to end.
# [2] = system: MAPK signaling in HCT-116 cells; assay: Western blot of MAPK signaling markers; type: cell-based, human; conditions: HCT116 KRAS mutant cell line, 4 hours, micromolar concentrations
# Description: For Western blot studies, HCT116 cells (5×10^6) were seeded into 10 cm dishes in McCoy's 5A plus 10% FBS. A375 cells (2.5×10^6) were seeded into 10 cm dishes in DMEM plus 10% FBS. Cells were allowed to adhere overnight prior to addition of the indicated amount of test compound (BVD-523) or vehicle control. Cells were treated for either 4 or 24 hours before isolation of whole-cell protein lysates, as specified below. Cells were harvested by trypsinisation, pelleted and snap frozen. Lysates were prepared with RIPA (Radio-Immunoprecipitation Assay) buffer, clarified by centrifugation and quantitated by bicinchoninic acid assay (BCA) assay. 20-50 μg of protein was resolved by SDS-PAGE electrophoresis, blotted onto PVDF membrane and probed using the antibodies detailed in Table 9 (for the 4-hour treatment) and Table 10 (for the 24-hour treatment) below.
# [3] = Group 1 (vehicle) vs Group 4 (BVD-523 50 mg/kg po bid to end)
# [4] = Group 4: BVD-523 50 mg/kg po bid to end
# [5] = Group 5: BVD-523 100 mg/kg po bid to end
smiles,measurement,setting,value
CC(C)Nc1cc(-c2c[nH]c(C(=O)N[C@H](CO)c3cccc(Cl)c3)c2)c(Cl)cn1 [BVD-523],Overall activity in the HCT116 xenograft model,[1]; BVD-523 50 mg/kg p.o. bid to end,active
same,Are survival curves diff.?,[1]; [3],Yes
same,Hazard Ratio,[1]; [3],4.813
same,Logrank test Chi square,[1]; [3],21.86
same,Median survival Ratio (Column A/Column B),[1]; [3],0.7517
same,% TGD,[1]; [4],33%
same,MTV (n): number of animals on D 45 (45-day survivors),[1]; [4],(5)
same,MTV D 45 (median tumor volume),[1]; [4],1666 mm^3
same,Median TTE,[1]; [4],43.5 days
same,Regressions CR,[1]; [4],0
same,Regressions PR,[1]; [4],0
same,Regressions TFS,[1]; [4],0
same,T − C,[1]; [4],10.8 days
same,% TGD,[1]; [5],38%
same,MTV (n): number of animals on D 45 (45-day survivors),[1]; [5],(11)
same,MTV D 45 (median tumor volume),[1]; [5],405 mm^3
same,Median TTE,[1]; [5],45.0 days
same,Regressions CR,[1]; [5],0
same,Regressions PR,[1]; [5],0
same,Regressions TFS,[1]; [5],0
same,T − C,[1]; [5],12.3 days
same,Phosphorylation of ERK-dependent residues (T359/S363) in RSK 1 and 2,[2],reduced
